# Data published in patent publication US20130109049A1, “Method of Establishing a Fungal Nail Infection” (NOVABIOTICS LIMITED, priority 2009, published 2013).
# Tests used:
# [1] = system: Trichophyton rubrum strain NCPF0118; assay: Ex vivo human nail fragment model, treatment of established infection (cfu recovered); assay type: cell-based
# Method: For antifungal efficacy studies with human toe nails, a solution of 50% (w/v) PEG 8000 (Sigma-Aldrich; Cat No P2139) was prepared by autoclaving and then diluting with sterile 50% (w/v) urea solution (Sigma-Aldrich; Cat No 51457). This solution was mixed thoroughly by vortexing and allowed to stabilise at 50° C. for up to 2 h. After stabilisation, the temperature was allowed to drop to below 40° C. and a concentrated, filter-sterilised solution of Novexatin® (NP213), dissolved in deionised water was added. Final concentrations of PEG 8000 of 50% (w/v), urea of 0-20% (w/v) and Novexatin® (NP213) of 0-10% (w/v) were used in the experiments described below.
# On arrival, the cultures were transferred to a Petri dish containing sterile Sabouraud Dextrose agar (Sigma-Aldrich; Cat No 84088, or equivalent) and grown for up to 7 d at 30° C. The resulting growth was scraped off and re-suspended in Sabouraud's liquid medium (Oxoid; Cat No CM 147, or equivalent) containing […] dimethyl sulfoxide (DMSO) as cryoprotectant to create a culture stock. The fungus was stored in 0.5 ml aliquots in 2 ml screw-capped polypropylene vials (Cryovials) at −80° C. Seven days prior to experimental use, 50 μl of the culture stock was used to inoculate a slope of Potato Dextrose agar (Merck; Cat No VM556130 609, or equivalent), which was incubated at 30° C. for up to 7 d. The surface of the resulting growth was gently perturbed in 3 ml of sterile distilled/deionised water. After filtration through 2 layers of sterile surgical gauze to remove debris and larger clumps of biomass, the absorbance of the resultant spore suspension was measured at 530 nm, then adjusted to the 0.5 MacFarland standard (OD approx. 0.15)^2.
# Human toe nails were obtained from a podiatrist in Aberdeen following a successful application to the Grampian Local Research Ethics Committee. […] Large toe nails were cut into 4 pieces, each approximately 1 cm^2 in area, using nail clippers. Nails of normal thickness (≦2 mm) were chosen. The 4 fragments cut from each single nail were placed in quadrants marked on Petri-dishes containing phosphate buffered saline rendered solid with 1.2% (w/v) Technical Agar No. 3 (Oxoid; Cat No LP0013, or equivalent), subsequently referred to as PBS agar. The nail fragments were of irregular shape, so to ensure that each nail received the appropriate amount of the treatment solutions, the surface area was measured by photographing the nails over graph paper and determining the number of 1mm^2 squares covered by each nail. The thickness of the nails was measured with a micrometer and nails distributed among treatment groups, to avoid nail thickness providing an additional experimental variable.
# Twenty four nail fragments from 6 whole large toenails were each inoculated with 10 μl of a spore suspension of T. rubrum NCPF0118 which was prepared as described above. The inoculum was applied to the ventral side of the nail (i.e. the side next to the skin in situ). The nails were incubated for 7 d at 30° C. to allow the fungus to infect the nail tissue. After this pre-incubation period, 12 of the fragments were assigned to each of 2 different treatment protocols, involving daily treatment with 2 different vehicle solutions, each containing a control and 3 different concentrations of Novexatin® (NP213). These vehicle solutions were: 50% (w/v) PEG 8000, and 50% (w/v) PEG 8000 plus 20% (w/v) urea. The concentrations of Novexatin® (NP213) studied were 0%, 1%, 5% and 10% (w/v). The solutions were applied at a volume of 10 μl/cm^2, corrected for the surface area of the different nail fragments as described above. The applied solution was spread over the dorsal side of the nail, to mimic the intended clinical treatment and the ventral side of the nail rested on the agar surface. Each time the nails were treated, they were transferred to a new sterile Petri dish containing PBS agar to minimise any build-up of fungal growth on the agar. Nail fragments were treated daily for 28 days. […]
# [2] = system: T. interdigitale NCPF0335; assay: Ex vivo human nail fragment model, prevention of infection; assay type: cell-based, Trichophyton interdigitale; settings: Experiment 8
# Description: Six nail fragments were obtained. Three were assigned to each of two different infection prevention protocols, involving daily application of 2 different vehicle solutions, each containing a control and 3 different concentrations of Novexatin® (NP213). These vehicle solutions were: 50% (w/v) PEG 8000, and 50% (w/v) PEG 8000 plus 20% (w/v) urea. The concentrations of Novexatin® (NP213) studied were 0% (control), 1% (Novexatin® 1), 5% (Novexatin® 2) and 10% (Novexatin® 3) (w/v). The solutions were applied at a volume of 10 μl/cm^2, corrected for the surface area of the different nail fragments as described above. The applied solution was spread over the dorsal side of the nail, to mimic the intended clinical treatment and the ventral side of the nail rested on the agar surface. Each time the nails were contacted with the vehicle solutions, they were transferred to a new sterile Petri dish containing PBS agar to minimise any build-up of fungal growth on the agar. Nail fragments were contacted with the vehicle solutions daily for 7 days. Following such contact, each nail fragment was contacted with 10 μl of a spore suspension of T. interdigitale NCPF0335 which was prepared as described above. The spore suspension was applied to the ventral side of the nail (i.e. the side next to the skin in situ). […]
# [3] = system: Trichophyton rubrum strain NCPF0118; assay: Ex vivo human nail fragment model, treatment of established infection (cfu recovered); assay type: cell-based; remark: listed apart in the source
# [4] = Experiment 1, 5% (w/v), absence of urea, daily 28 days
substance,measurement,setting,value
7 to 200-mer (SEQ ID NO: 3) polyarginine [Novexatin® (NP213)],killing of T. rubrum NCPF0118 on nail fragments (dose dependence),"[1]; Experiment 1, 0%, 1%, 5%, 10% (w/v) in 50% PEG 8000 with or without 20% urea, daily for 28 days",dose-dependent
same,reduction in fungal survival,"[1]; Experiment 1, 1% (w/v), daily 28 days",approximately 1 log10
same,"fungi isolated with 20% (w/v) urea added to the vehicle, versus vehicle alone","[1]; Experiment 1, 1% (w/v), not statistically significant",fewer fungi than in vehicle alone
same,fungal colonies isolated from nail fragments,"[1]; Experiment 1, 5% (w/v) with 20% (w/v) urea in vehicle, daily 28 days",no colonies were isolated
same,decrease in survival of the fungus compared to controls,[1]; [4],approximately 3 log10
same,fungal colonies isolated from nail fragments,[1]; [4],a small number of colonies were detected
same,recoverable fungal growth after treatment,"[1]; Experiment 5, 10% (w/v), approximately 100×MIC100, 14 d or 28 d, daily",no recoverable fungal growth
same,fungal growth on pre-treated nail fragments,"[2]; pre-treated daily for 7 days (1%, 5%, 10% w/v), after 24 hours from spore contact",no fungal growth
same,fungal growth on pre-treated nail fragments,[2]; up to 14 days after contact with spore suspension,No fungal growth was observed
same,killing of T. rubrum NCPF0118,"[3]; 10% (w/v) in 50% (w/v) PEG 8000 vehicle, 28 d of treatment",> 99.9%
same,fungal colonies isolated from nail fragments,"[3]; Experiment 1, 10% (w/v), both presence and absence of urea, daily 28 days",no colonies were isolated
same,effect of treatment on fungal survival (dose dependence),"[3]; Experiment 2, 0%, 2.5%, 5%, 10% (w/v) in 50% PEG 8000 + 20% urea",dose-dependent effect
same,reduction in fungal survival,"[3]; Experiment 2, 2.5% and 5.0% (w/v), daily",significant reductions in fungal survival
same,reduction in fungal survival,"[3]; Experiment 2, 2.5%, 5.0% and 10.0% (w/v), alternate days",the reduction in fungal survival was significant
same,reduction of fungal survival relative to Experiment 1,"[3]; Experiment 2, 5% (w/v), difference not statistically significant",less effective in reducing fungal survival than observed in Experiment 1
same,fungal colonies recovered,"[3]; Experiment 2, 10% (w/v) applied daily, PEG 8000 + 20% urea",no fungal colonies were recovered
same,decrease in survival of the fungus compared to controls,"[3]; Experiment 2, 10% (w/v) applied on alternate days",~3 log10
same,fungal colonies recovered,"[3]; Experiment 2, 10% (w/v) applied on alternate days, PEG 8000 + 20% urea",small numbers of colonies were recovered
same,visual examination of nail fragments,"[3]; Experiment 2, after 28 d treatment, versus vehicle alone (FIG. 7)",no visual evidence of fungal infection
same,effect of simulated washing on antifungal efficacy,"[3]; Experiment 4, nail surface wiped with sterile water before application",did not affect the antifungal efficacy
same,fungal colonies recovered,"[3]; Experiment 4, washed or unwashed nail fragments, 28 days",No fungal colonies were recovered
